# Experimental data as given in ChEMBL document CHEMBL1821630, “Synthesis and antitumor activity of new sulfonamide derivatives of thiadiazolo[3,2-a]pyrimidines” (Eur J Med Chem, 2011).
# Activity calls are given as the source filed them. No cut-off for these calls is given here.
# What was measured:
# Nucleic Acid [1] = experiment: Displacement of methyl green dye from DNA after 24 hrs by spectrophotometric analysis; format: nucleic-acid assay
# Nucleic Acid [2] = experiment: Binding affinity to DNA using anisaldehyde reagent by TLC method; format: nucleic-acid assay
# Ehrlich [3] = experiment: Antitumor activity against mouse EAC cells xenografted in Swiss albino mouse assessed as reduction in viable tumor cells at 100 ug after 5 days using giemsa staining by microscopy; format: functional
# [4] = Antitumor activity against mouse EAC cells xenografted in Swiss albino mouse assessed as increase in lifespan of organism at 100 ug administered 24 hrs post inoculation for 9 days; format: functional, Ehrlich
# Mus musculus [5] = experiment: Toxicity in Swiss albino mouse xenografted with mouse EAC assessed as RBC level at 20 mg/kg, ip (reference value: 5.1/10^6 mm-3); format: organism-based; parameters: dose 20 mg/kg, route intraperitoneal; conditions: in vivo
# [6] = Antitumor activity against mouse EAC cells xenografted in Swiss albino mouse assessed as increase in lifespan of organism at 20 mg/kg, ip administered 24 hrs post inoculation for 9 days; format: functional, Ehrlich; conditions: route intraperitoneal
# Mus musculus [7] = experiment: Toxicity in Swiss albino mouse xenografted with mouse EAC assessed as ALT level at 20 mg/kg, ip (reference value: 3.7 u/L); format: organism-based; parameters: dose 20 mg/kg, route intraperitoneal; conditions: in vivo
# Mus musculus [8] = experiment: Toxicity in Swiss albino mouse xenografted with mouse EAC assessed as haemoglobin level at 20 mg/kg, ip (reference value: 13.4 per g%); format: organism-based; parameters: dose 20 mg/kg, route intraperitoneal; conditions: in vivo
# Mus musculus [9] = experiment: Toxicity in Swiss albino mouse xenografted with mouse EAC assessed as total WBC level at 20 mg/kg, ip (reference value: 4.35/10^3 mm3); format: organism-based; parameters: dose 20 mg/kg, route intraperitoneal; conditions: in vivo
# Ehrlich [10] = experiment: Antitumor activity against mouse EAC cells xenografted in Swiss albino mouse assessed as reduction in viable tumor cells at 20 mg/kg, ip after 5 days using giemsa staining by microscopy; format: functional, organism-based; parameters: dose 20 mg/kg
# Mus musculus [11] = experiment: Toxicity in Swiss albino mouse xenografted with mouse EAC assessed as haemoglobin level at 100 ug (reference value: 13.4 per g%); format: organism-based; conditions: in vivo
# Mus musculus [12] = experiment: Toxicity in Swiss albino mouse xenografted with mouse EAC assessed as ALT level at 100 ug (reference value: 3.7 u/L); format: organism-based; conditions: in vivo
# Mus musculus [13] = experiment: Toxicity in Swiss albino mouse xenografted with mouse EAC assessed as total WBC level at 100 ug (reference value: 4.35/10^3 mm3); format: organism-based; conditions: in vivo
# Mus musculus [14] = experiment: Toxicity in Swiss albino mouse xenografted with mouse EAC assessed as RBC level at 100 ug (reference value: 5.1/10^6 mm-3); format: organism-based; conditions: in vivo
Compound,IC50 (Nucleic Acid [1]),Activity (Nucleic Acid [2]),further results
NS(=O)(=O)c1nn2c(=O)ccnc2s1,70 µg/mL,,
Cc1ccc(/N=N/c2c(C)nc3sc(S(N)(=O)=O)nn3c2=O)cc1,81 µg/mL,inactive,
CC[n+]1c(-c2ccccc2)c2cc(N)ccc2c2ccc(N)cc21.[Br-] [HOMIDIUM BROMIDE],1.4 µg/mL,,
COc1ccc(C2C=C(c3ccc(N)cc3)N=C3SC(S(N)(=O)=O)=NN32)cc1 (centres undefined),81 µg/mL,inactive,
Cc1nc2sc(S(N)(=O)=O)nn2c(=O)c1/N=N/c1ccccc1,77 µg/mL,,
Cc1cc(=O)n2nc(S(N)(=O)=O)sc2n1,76 µg/mL,,
COc1ccc(/N=N/c2c(C)nc3sc(S(N)(=O)=O)nn3c2=O)cc1,81 µg/mL,inactive,
Cc1nc2sc(S(N)(=O)=O)nn2c(=O)c1/N=N/c1ccc([N+](=O)[O-])cc1,81 µg/mL,inactive,
Cc1nc2sc(S(N)(=O)=O)nn2c(=O)c1/N=N/c1ccc(Cl)cc1,74 µg/mL,,
Cc1nc2sc(S(N)(=O)=O)nn2c(=O)c1/N=N/c1ccc(Br)cc1,74 µg/mL,,
Cc1cccc(C2=CC(c3ccccc3)N3N=C(S(N)(=O)=O)SC3=N2)c1 (centres undefined),72 µg/mL,,
COc1ccc(C2C=C(c3ccccc3)N=C3SC(S(N)(=O)=O)=NN32)cc1OC (centres undefined),62 µg/mL,Active,Activity (Ehrlich [3]): Active; Activity [4]: 57.14%
N=C1CC(=O)N=C2SC(S([NH-])(=O)=O)=NN12.[Na+],76 µg/mL,,
NS(=O)(=O)C1=NN2C(=NC(c3ccccc3)=CC2c2cc([N+](=O)[O-])ccc2Cl)S1 (centres undefined),80 µg/mL,,
NS(=O)(=O)C1=NN2C(=NC(c3ccccc3)=CC2c2ccc([N+](=O)[O-])cc2)S1 (centres undefined),81 µg/mL,inactive,
NS(=O)(=O)c1nn2c(=O)cc(Cl)nc2s1,79 µg/mL,,
O=c1[nH]cc(F)c(=O)[nH]1 [FLUOROURACIL],,,Activity (Mus musculus [5]): 5.87%; Activity [6]: 42.86%; Activity (Mus musculus [7]): 6.9%; Activity (Mus musculus [8]): 15.6%; Activity (Mus musculus [9]): 14.7%; Activity (Ehrlich [10]): Active
Nc1ccc(C2=CC(c3ccc(Cl)cc3)N3N=C(S(N)(=O)=O)SC3=N2)cc1 (centres undefined),64 µg/mL,Active,Activity (Mus musculus [11]): 11.1%; Activity (Ehrlich [3]): Active; Activity (Mus musculus [12]): 6.7%; Activity (Mus musculus [13]): 9.45%; Activity [4]: 71.43%; Activity (Mus musculus [14]): 5.96%
NS(=O)(=O)c1nn2c(=O)cc(C(=O)NNc3ccccc3)nc2s1,81 µg/mL,inactive,
NS(=O)(=O)C1=NN2C(=NC(c3ccccc3)=CC2c2ccc(Cl)cc2)S1 (centres undefined),40 µg/mL,Active,Activity (Ehrlich [3]): Active; Activity [4]: 42.86%
